The source of these data is US20090253704A1, “PYRROLOTRIAZINONE DERIVATIVES FOR USE AS STEAROYL CoA DESATURASE INHIBITORS” (priority 2008, published 2009).

The target in this experiment is T1, Stearoyl-CoA desaturase (SCD) (Rattus norvegicus, UniProt P07308).
T1 construct: from tissue; host or cells: liver microsomes of male Sprague Dawley rats, SCD induced by carbohydrate-rich diet
T1 sequence (P07308 1-358): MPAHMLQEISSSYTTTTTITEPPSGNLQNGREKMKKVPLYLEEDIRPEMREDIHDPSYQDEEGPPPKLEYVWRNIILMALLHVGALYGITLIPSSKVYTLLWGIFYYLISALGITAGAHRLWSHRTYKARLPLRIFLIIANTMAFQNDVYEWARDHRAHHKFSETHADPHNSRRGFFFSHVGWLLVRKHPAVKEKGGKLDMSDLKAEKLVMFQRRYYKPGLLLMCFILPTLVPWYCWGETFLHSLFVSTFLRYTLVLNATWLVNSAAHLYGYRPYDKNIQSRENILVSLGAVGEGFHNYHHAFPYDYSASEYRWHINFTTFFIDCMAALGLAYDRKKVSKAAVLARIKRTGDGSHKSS
In words: SCD assay in rat liver microsomes ([3H]stearoyl CoA desaturation, adapted from Talamo and Bloch). The note with it: rat liver microsomes 0.2 mg/ml final, 30 min preincubation, 45 min reaction at room temperature. It counts as biochemical. From the text: The identification of compounds of the invention as SCD inhibitors was readily accomplished using the SCD enzyme and microsomal assay procedure described in Talamo and Bloch (1969) Analytical Biochemistry 29:300-304.
The rat liver microsomes were collected according to the procedure described in Ozols (1990) Methods Enzm, 182:225.
Male Spraque Dawley Rats were placed on regimented fasting protocol for one week to stimulate SCD enzymatic activity. 48-hour periods were alternated between feeding and fasting to induce and down-regulate SCD activity with SCD activity being induced via carbohydrate rich diet prior to liver perfusion and collection.
The rats were anesthetized with Isoflurane inhalation anesthetic, the liver perfused with cold phosphate buffered saline (PBS), weighed, and chilled in cold homogenization buffer (250 mM sucrose, 10 mM Tris, 1 mM EDTA, pH 7.6).
The livers were finely minced and placed in homogenization tube. Homogenization buffer (40 mL) was added to the homogenization tube and the liver homogenized and centrifuged in a pre-chilled […] for 10 min at 4° C.
Following centrifugation, the supernatant was collected and the pellet removed and discarded. The supernatant was centrifuge at 10,000 G for 35 minutes. Following centrifugation, the supernatant was collect and the pellet discarded. The supernatant was then centrifuged in a pre-chilled 45-Ti rotor at 130,000 G (41,000 RPM) for 90 minutes at 4° C.
The supernatant was then aspirated off and the collected microsomal pellet washed in 25 mL of Glycerol PBS (1×PBS 7.4, 20% Glycerol) and resuspended in 4-5 volumes of Glycerol PBS.
The protein concentration of the microsomal preparation was determined by BCA assay (Pierce) and the microsomes were aliquoted and stored at −80° C.
Biobeads were ground to a smaller size in a mortar and pestle and resuspended in 3.6% TCA. The beads were then filtered through […] mesh.
SCD was determined in the desaturase assay buffer. This assay buffer contained 0.1 M Tris buffer, pH 7.2, 2 mM NADH, 4.8 mM ATP, 0.5 mM CoA, 4.8 mM MgCl2, and 0.1% BSA.
The Procedure for the SCD Assay (Adapted from Talamo and Bloch (1969) Analytical Biochemistry 29:300-304)
1 μl of each compound of Formula I was added to an assay plate by a low volume (0.5-10 μL) multichannel pipette. A DMSO control was also prepared. The microsomes were quickly thawed and added to assay buffer so that a concentration of 0.4 mg/ml was achieved (0.2 mg/ml assay final). 50 μl of the microsome suspension in assay buffer was then added into each well in the compound assay plate, the plate was covered, and the microsomes preincubated with the compounds for 30 minutes on the orbital shaker, 50-75 rpm, at room temperature.
After preincubation, the reaction was initiated by the addition of 50 μl of substrate solution (20 μM Stearoyl CoA, [3H]Stearoyl CoA, 74 nCi) to the preincubated microsomes/compound suspensions in MilliQ (Millipore) H2O. The reaction mixtures were then incubated for 45 minutes on the orbital shaker at 50-75 rpm at room temperature.
The reaction was terminated by the addition of 10 μl of 21% trichloroacetic acid (TCA) to the reaction mixture followed incubation on the orbital shaker for 30 minutes at 50-75 rpm at room temperature followed by centrifugation for 5 minutes at 3700 rpm.
50 μl of a 6% Bio-Bead suspension in H2O was added to the reaction mixture and the assay plate was sealed. The Bio-Bead mixture was incubated on the orbital shaker for 1 hour, 100-150 rpm at room temperature, and then the mixture was centrifuged at 2000 g for 5 minutes to pellet the Bio-Beads.
25 μl of the supernatant was harvested from each well and transferred to a detection plate. 100 μl of OptiPhase SuperMix scintillation cocktail (containing sufficient NaOH to neutralize the TCA) was added and the solutions mixed by vigorous shaking (300-400 rpm) for 5 minutes at room temperature.
In general terms: Liver microsomes are vesicles of endoplasmic reticulum, rich in cytochrome P450 enzymes.

Regarding `O=C(Nc1cc2c(=O)n(Cc3ccc(Cl)c(Cl)c3)cnn2c1)OCc1ccccc1` [benzyl 3-(3,4-dichlorobenzyl)-4-oxo-3,4-dihydropyrrolo[1,2-f][1,2,4]triazin-6-ylcarbamate], the IC50 – broadly, the point on the concentration scale where inhibition reaches its midpoint – was 1600 nM. This lies in the single-digit micromolar range.
In turn, `O=C(Nc1cc2c(=O)n(CCc3ccc(Cl)cc3)cnn2c1)C(O)CO` (stereo not drawn) [N-(3-(4-chlorophenethyl)-4-oxo-3,4-dihydropyrrolo[1,2-f][1,2,4]triazin-6-yl)-2,3-dihydroxypropanamide] displayed a 50% inhibitory concentration (IC50) of 830 nM.
`O=C(Nc1cc2c(=O)n(Cc3ccc(Cl)c(Cl)c3)cnn2c1)C(O)CO` (stereo not drawn) [N-(3-(3,4-dichlorobenzyl)-4-oxo-3,4-dihydropyrrolo[1,2-f][1,2,4]triazin-6-yl)-2,3-dihydroxypropanamide] showed an IC50 of 10 nM.
`O=C(CO)Nc1cc2c(=O)n(CCOc3ccccc3Cl)cnn2c1` [N-(3-(2-(2-chlorophenoxy)ethyl)-4-oxo-3,4-dihydropyrrolo[1,2-f][1,2,4]triazin-6-yl)-2-hydroxyacetamide]: it took 5600 nM to reach half-maximal inhibition (IC50).
The compound `O=C(CO)Nc1cc2c(=O)n(CCc3ccc(Cl)cc3)cnn2c1` [N-(3-(4-chlorophenethyl)-4-oxo-3,4-dihydropyrrolo[1,2-f][1,2,4]triazin-6-yl)-2-hydroxyacetamide] had an IC50 of 14000 nM. This IC50 is about 2.5-fold higher than that of the compound before.
The compound `O=C(CO)Nc1cc2c(=O)n(CCCOc3cc(Cl)ccc3Cl)cnn2c1` [N-(3-(3-(2,5-dichlorophenoxy)propyl)-4-oxo-3,4-dihydropyrrolo[1,2-f][1,2,4]triazin-6-yl)-2-hydroxyacetamide] gave an IC50 of 240 nM. This IC50 lies about 58-fold lower than the previous one.
Compound `O=C(CO)Nc1cc2c(=O)n(Cc3ccc(Cl)c(C(F)(F)F)c3)cnn2c1` [N-(3-(4-chloro-3-(trifluoromethyl)benzyl)-4-oxo-3,4-dihydropyrrolo[1,2-f][1,2,4]triazin-6-yl)-2-hydroxyacetamide] yielded an IC50 of 320 nM.
On to `O=C(CO)Nc1cc2c(=O)n(Cc3ccc(Cl)c(Cl)c3)cnn2c1` [N-(3-(3,4-dichlorobenzyl)-4-oxo-3,4-dihydropyrrolo[1,2-f][1,2,4]triazin-6-yl)-2-hydroxyacetamide], for which the IC50 came out at 250 nM.
Compound `CCCCCCC(=O)Nc1cc2c(=O)n(Cc3ccc(Cl)c(Cl)c3)cnn2c1` [N-(3-(3,4-dichlorobenzyl)-4-oxo-3,4-dihydropyrrolo[1,2-f][1,2,4]triazin-6-yl)heptanamide] yielded an IC50 of 27000 nM.
